Reference: patent US11332494B2, “Nanoemulsions and methods for cancer therapy” (Fernando Thome Kreutz, priority 2016, dated 2022)
Where two headings read alike, the source gives them in different places.

Assays:
Assay in all cases: Cell viability assay (Hoechst 33342/PI, ImageXpress)
Assay type in all cases: cell-based
MRC-5 = settings: MRC5; MRC-5, human lung normal; Table 2
Procedure: (§1) The purity of each oxysterol was determined to be 98% by GS/MS. For all experiments, a stock solution was prepared at a concentration of 1000 μM in absolute ethanol. The concentrations used in the experiments were in the range of those described to induce cell death on several cell lines. For the experiments, cells were plated at a density of 1.5×10^3 cells/[…] in triplicate in 96-well Black Flat Bottom Polystyrene Microplates (Corning, Mass.) and incubated in CO2 atmosphere. Several concentrations of each oxysterol (0 to 100 μM, 200 μL final volume) were added to the media, followed by incubation for 24 h. At the end of this experimental period, several parameters were determined in each of the three samples, as described hereafter.
(§2) After 24 h cells were incubated with Hoechst 33342 (0.1 μg/mL) and 0.5 μl propidium iodide (PI) for 15 min. ImageXpress Micro high content screening system (Molecular Devices, Sunnyvale, Calif.) was used to determine the number of live and death cells. Nine sites per well and three wells per treatment were acquired. Cell Scoring MetaXpress software was used to analyze the number of cells and the viability. For IC50 calculations, survival data were evaluated by variable slope curve-fitting with GraphPad Prism.

Jurkat = settings: human acute T cell leukemia, Table 2
Procedure: as §1, §2

U87-MG = settings: U-87 MG, human glioblastoma astrocytoma, Table 2
Procedure: as §1, §2

A172 = settings: A 172; A172, human brain glioblastoma; Table 2
Procedure: as §1, §2

Raji = settings: human Burkitt's lymphoblast, Table 2
Procedure: as §1, §2

HepG-2 = settings: HepG2; HepG-2, human hepatocellular carcinoma; Table 2
Procedure: as §1, §2

HeLa = settings: human cervix adenocarcinoma, Table 2
Procedure: as §1, §2

T98G = settings: human brain glioblastoma, Table 2
Procedure: as §1, §2

PC-3 = settings: PC-3, human prostate grade IV adenocarcinoma; Table 2
Procedure: as §1, §2

Molt-4 = settings: Molt-4, human acute lymphoblastic leukemia; Table 2
Procedure: as §1, §2

MDA-MB-321 cell line = system: MDA-MB-321 cell line
Procedure: as §1, with “Several concentrations of each oxysterol (0 to 100 μM, 200 μL final volume) were added to the media, followed by incubation for 24 h.” left out
as §2

B16-F10 cell line = settings: Mus musculus
Procedure: as §1, with “Several concentrations of each oxysterol (0 to 100 μM, 200 μL final volume) were added to the media, followed by incubation for 24 h.” left out
as §2

HUV-EC = settings: Homo sapiens, HUVEC, Table 4, time and unit inferred
Procedure: as §1, with “hereafter. After 24 h cells were incubated with Hoechst 33342 (0.1 μg/mL) and 0.5 μl propidium iodide (PI) for 15 min. ImageXpress Micro high content screening system (Molecular Devices, Sunnyvale, Calif.) was used to determine the number of live and death cells. Nine sites per well and three wells per treatment were acquired. Cell Scoring MetaXpress software was used to analyze the number of cells and the viability. For IC50 calculations, survival data were evaluated by variable slope curve-fitting with GraphPad Prism.” for “hereafter.”

LL 24 = settings: LL24, Table 4, time and unit inferred
Procedure: as §1, with “hereafter. After 24 h cells were incubated with Hoechst 33342 (0.1 μg/mL) and 0.5 μl propidium iodide (PI) for 15 min. ImageXpress Micro high content screening system (Molecular Devices, Sunnyvale, Calif.) was used to determine the number of live and death cells. Nine sites per well and three wells per treatment were acquired. Cell Scoring MetaXpress software was used to analyze the number of cells and the viability. For IC50 calculations, survival data were evaluated by variable slope curve-fitting with GraphPad Prism.” for “hereafter.”

[1] = MDA-MB-321, 24 h, Table 3, read-out: MDA-MB-321 cell line IC50 (uM) 24 h
[2] = MDA-MB-321, 48 h, Table 3, read-out: MDA-MB-321 cell line IC50 (uM) 48 h
[3] = MDA-MB-321, 72 h, Table 3, read-out: MDA-MB-321 cell line IC50 (uM) 72 h
[4] = MDA-MB-321, Table 4, time and unit inferred, read-out: IC50 MDA-MB-321
[5] = B16-F10, 24 h, Table 3, read-out: B16-F10 cell line IC50 (uM) 24 h
[6] = B16-F10, 48 h, Table 3, read-out: B16-F10 cell line IC50 (uM) 48 h
[7] = B16-F10, 72 h, Table 3, read-out: B16-F10 cell line IC50 (uM) 72 h
[8] = B16 F10, Table 4, time and unit inferred, read-out: IC50 B16 F10

Row | Structure (SMILES) | IC50 (MRC-5) [µM] | IC50 (Jurkat) [µM] | IC50 (U87-MG) [µM] | IC50 (A172) [µM] | IC50 (Raji) [µM] | IC50 (HepG-2) [µM] | IC50 (HeLa) [µM] | IC50 (T98G) [µM] | IC50 (PC-3) [µM] | IC50 (Molt-4) [µM] | IC50 (MDA-MB-321 cell line; [1]) [µM] | IC50 (MDA-MB-321 cell line; [2]) [µM] | IC50 (MDA-MB-321 cell line; [3]) [µM] | IC50 (MDA-MB-321 cell line; [4]) [µM] | IC50 (B16-F10 cell line; [5]) [µM] | IC50 (B16-F10 cell line; [6]) [µM] | IC50 (B16-F10 cell line; [7]) [µM] | IC50 (B16-F10 cell line; [8]) [µM] | IC50 (HUV-EC) [µM] | IC50 (LL 24) [µM]
1 | CC(C)CCCC(C)C1CCC2C3CC(O)C4(O)CC(O)CC[C@]4(C)C3CC[C@]12C (stereo in doubt) [Ox-2, Cholestane-3α-5β-6α-triol] | 47.5 | 46.6 | 29.8 | 23.6 | 39 | 19 | 19.9 | 27.5 | 21 | 12.3 | 7.9 | 21.1 | 25.2 | 37.5 | 18.1 | 21.4 | 15.4 | 41.3 | 73.6 | 38.4
2 | CC(C)CCCC(C)C1CCC2C3CC(O)C4CC(O)CC[C@]4(C)C3CC[C@]12C (stereo in doubt) [Ox-4, (3α,5β,6α)-cholestane-3,6-diol] | – | – | – | – | – | – | – | – | – | – | 66.6 | 39.7 | 35.3 | 59 | 58.3 | 52.9 | 82.6 | 42.4 | – | 28.3
3 | CC(C)CCC[C@@H](C)[C@H]1CC[C@H]2[C@@H]3C(=O)C=C4C[C@@H](O)CC[C@]4(C)[C@H]3CC[C@]12C [Ox-1, 7-Ketocholesterol] | 78.6 | 55.8 | 55.6 | 15.6 | 63.3 | 42.5 | 33.2 | – | 19.2 | 38 | 54.4 | 50.4 | 48.1 | 37.6 | 19.9 | 21.7 | 29.6 | 35.6 | 39.4 | 49.5
4 | CC(C)CCC[C@H](C)C1CCC2C3C(=O)C=C4C=CCC[C@]4(C)C3CC[C@@]21C (stereo partly shown) [Ox-3, 3,5-cholestan-7-one] | – | – | – | – | – | – | – | – | – | – | – | – | – | – | – | 377 | 52.9 | 118 | – | –
5 | CC(=O)O[C@H]1CC[C@@]2(C)C(=CC[C@H]3[C@@H]4CC[C@H]([C@H](C)CCCC(C)C)[C@@]4(C)CC[C@@H]32)C1 [Ox-5, Cholesteryl acetate] | – | – | – | – | – | – | – | – | – | – | – | – | 89.8 | – | – | – | – | – | – | –
6 | CC(=O)O[C@H]1CC[C@@]2(C)C(=CC(=O)[C@H]3[C@@H]4CC[C@H]([C@H](C)CCCC(C)C)[C@@]4(C)CC[C@@H]32)C1 [Ox-6, 7-oxocholest-5-en-3-β-yl acetate] | – | – | – | – | – | – | – | – | – | – | – | 8560 | 829 | – | – | – | – | – | – | –
7 | CC(C)CCC[C@@H](C)[C@H]1CC[C@H]2[C@@H]3C(=O)[C@@H]4O[C@@]45C[C@@H](O)CC[C@]5(C)[C@H]3CC[C@]12C [Ox-8, (3α,5β,6α)-3-OH-5,6-epoxycholestan-7-one] | – | – | – | – | – | – | – | – | – | – | – | – | – | 40 | – | – | – | 37 | 35.2 | 46.5
